Measured values as given in ChEMBL document CHEMBL4715697, “Synthesis and biological activity of benzamide DNA minor groove binders” (2016).

Tests used:
NCI-H322M = assay: Growth inhibition of human NCI-H322M cells assessed as cell growth at 10 uM incubated for 48 hrs by sulforhodamine B assay relative to control; assay type: functional; settings: read-out: Activity
UO-31 = assay: Growth inhibition of human UO-31 cells assessed as cell growth at 10 uM incubated for 48 hrs by sulforhodamine B assay relative to control; assay type: functional; settings: read-out: Activity
HT-29 = assay: Growth inhibition of human HT-29 cells assessed as cell growth at 10 uM incubated for 48 hrs by sulforhodamine B assay relative to control; assay type: functional; settings: read-out: Activity
NCI-H460 = assay: Growth inhibition of human NCI-H460 cells assessed as cell growth at 10 uM incubated for 48 hrs by sulforhodamine B assay relative to control; assay type: functional; settings: read-out: Activity
UACC-257 = assay: Growth inhibition of human UACC-257 cells assessed as cell growth at 10 uM incubated for 48 hrs by sulforhodamine B assay relative to control; assay type: functional; settings: read-out: Activity
ACHN = assay: Growth inhibition of human ACHN cells assessed as cell growth at 10 uM incubated for 48 hrs by sulforhodamine B assay relative to control; assay type: functional; settings: read-out: Activity
UACC-62 = assay: Growth inhibition of human UACC-62 cells assessed as cell growth at 10 uM incubated for 48 hrs by sulforhodamine B assay relative to control; assay type: functional; settings: read-out: Activity
CAKI-1 = assay: Growth inhibition of human CAKI-1 cells assessed as cell growth at 10 uM incubated for 48 hrs by sulforhodamine B assay relative to control; assay type: functional; settings: read-out: Activity
OVCAR-3 = assay: Growth inhibition of human OVCAR-3 cells assessed as cell growth at 10 uM incubated for 48 hrs by sulforhodamine B assay relative to control; assay type: functional; settings: read-out: Activity
PC-3 = assay: Growth inhibition of human PC-3 cells assessed as cell growth at 10 uM incubated for 48 hrs by sulforhodamine B assay relative to control; assay type: functional; settings: read-out: Activity
OVCAR-5 = assay: Growth inhibition of human OVCAR-5 cells assessed as cell growth at 10 uM incubated for 48 hrs by sulforhodamine B assay relative to control; assay type: functional; settings: read-out: Activity
SN12C = assay: Growth inhibition of human SN12C cells assessed as cell growth at 10 uM incubated for 48 hrs by sulforhodamine B assay relative to control; assay type: functional; settings: read-out: Activity
HCC 2998 = assay: Growth inhibition of human HCC 2998 cells assessed as cell growth at 10 uM incubated for 48 hrs by sulforhodamine B assay relative to control; assay type: functional; settings: read-out: Activity
OVCAR-4 = assay: Growth inhibition of human OVCAR-4 cells assessed as cell growth at 10 uM incubated for 48 hrs by sulforhodamine B assay relative to control; assay type: functional; settings: read-out: Activity
K562 = assay: Growth inhibition of human K562 cells assessed as cell growth at 10 uM incubated for 48 hrs by sulforhodamine B assay relative to control; assay type: functional; settings: read-out: Activity
SR = assay: Growth inhibition of human SR cells assessed as cell growth at 10 uM incubated for 48 hrs by sulforhodamine B assay relative to control; assay type: functional; settings: read-out: Activity
Hs-578T = assay: Growth inhibition of human Hs-578T cells assessed as cell growth at 10 uM incubated for 48 hrs by sulforhodamine B assay relative to control; assay type: functional; settings: read-out: Activity
SF-295 = assay: Growth inhibition of human SF-295 cells assessed as cell growth at 10 uM incubated for 48 hrs by sulforhodamine B assay relative to control; assay type: functional; settings: read-out: Activity
A498 = assay: Growth inhibition of human A498 cells assessed as cell growth at 10 uM incubated for 48 hrs by sulforhodamine B assay relative to control; assay type: functional; settings: read-out: Activity
[1] = tested on: Poly(dA-dT)oligonucleotide; assay: Displacement of ethidium bromide from minor groove of poly(dA:dT) dsDNA (unknown origin) by fluorescence spectrophotometry; assay type: nucleic-acid assay
[2] = tested on: Poly(dA-dT)oligonucleotide; assay: Binding affinity to minor groove of poly(dA:dT) dsDNA (unknown origin) assessed as change in melting temperature by UV-vis spectrophotometry based DNA melting assay; assay type: nucleic-acid assay

Structure (SMILES) | growth at 10 µM (NCI-H322M) | growth at 10 µM (UO-31) | growth at 10 µM (HT-29) | growth at 10 µM (NCI-H460) | growth at 10 µM (UACC-257) | growth at 10 µM (ACHN) | growth at 10 µM (UACC-62) | growth at 10 µM (CAKI-1) | growth at 10 µM (OVCAR-3) | growth at 10 µM (PC-3) | growth at 10 µM (OVCAR-5) | growth at 10 µM (SN12C) | growth at 10 µM (HCC 2998) | growth at 10 µM (OVCAR-4) | growth at 10 µM (K562) | growth at 10 µM (SR) | growth at 10 µM (Hs-578T) | growth at 10 µM (SF-295) | ΔTm [2] | other results
CC(=O)Nc1cccc(NC(=O)c2ccc(C(=O)Nc3cc(CO)cc(NC(C)=O)c3)cc2)c1 | 115% | 100% | 109% | 112% | 101% | 106% | 101% | 111% | 126% | 101% | 108% | 106% | 102% | 68.7% | 104% | 104% |  |  |  | 
CC(=O)Nc1cc(CO)cc(NC(=O)c2ccc(C(=O)Nc3cc(CO)cc(NC(C)=O)c3)cc2)c1 | 103% | 97.1% | 107% | 107% | 106% | 109% | 103% | 117% | 139% | 97.9% | 106% | 97.4% | 99.6% |  | 106% | 106% | 101% | 96.8% |  | 
CC(=O)Nc1cc(CO)cc(NC(=O)c2ccccc2)c1 | 110% | 95.5% | 109% | 104% | 104% | 109% | 104% | 98.9% | 118% | 101% | 103% | 119% | 97.8% | 111% | 110% | 107% | 105% | 108% |  | growth at 10 µM (A498): 91.6%
CC(=O)Nc1cc(CO)cc(NC(=O)c2ccc(C(=O)Nc3cccc(NC(=O)CCCN(C)C)c3)cc2)c1 | 98.5% | 112% | 59.4% | 90.3% | 88% | 92.8% | 64.6% | 101% | 119% | 98.6% | 109% | 103% | 97.7% | 34.8% | 16.7% | 11% |  |  | 30.7 °C | C50 [1]: 118 µM
CCN(CC)CC(=O)Nc1ccc(C(=O)Nc2cc(CO)cc(NC(C)=O)c2)cc1 | 105% | 97.8% | 110% | 109% | 103% | 108% | 97% | 106% | 116% | 116% | 107% | 103% | 98.6% |  |  |  |  | 136% | 10.2 °C | 
CC(=O)Nc1cc(CO)cc(NC(=O)c2ccc(C(=O)NCCCN3CCOCC3)cc2)c1 | 105% | 100% | 115% | 111% | 103% | 108% | 101% | 109% | 118% | 100% | 103% | 104% | 100% | 67.9% | 103% | 94.1% |  |  |  | 
